# Assay results as given in PubChem BioAssay (NCI).
# “And” between values parts separate entries of the source, which are not always exact repeats. Equal entries are not always repeated.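 Growth conditions: 96-well plates. Treatment: test compound, 48 hours, 5 concentrations. Analysis: linear interpolation between bracketing concentrations; unreached endpoints set to highest concentration. GI50: concentration for 50% inhibition of growth. Definition used: TGI = concentration required for complete inhibition of growth.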
# Tested on: MDA-MB-468 breast
# Test: NCI tumour cell line growth inhibition, 48 h
SMILES,GI50,TGI
COc1ccc(Cn2cc3c(c2-c2cc(OC)c(OC)c(OC)c2)CCc2cnoc2-3)cc1N,25.1 nM,0.0735 µM
COc1ccc(-c2ccc(-c3ccc(C(=N)N)cn3)o2)cc1Cl,1840 nM,3.51 µM
COc1cc(NC(=O)NCc2ccco2)ccc1-c1ccc(NC(=O)NCc2ccco2)cc1OC,1820 nM,4.61 µM
CCOC(=O)C(=CN1CCNC1=S)C(=O)OCC,> 100000 nM,> 100 µM
CC(C)C[C@H](NC(=O)CCn1ccc2ncccc2c1=O)B(O)O,2350 nM,14.4 µM
Cc1ccc(Nc2cc(C)nc(NCCCNc3ccnc4cc(Cl)ccc34)n2)cc1,1430 nM,2.92 µM
C[C@@H](COCCC(=O)N1CCN(c2ncc(C(F)(F)F)cn2)CC1)Nc1cn[nH]c(=O)c1C(F)(F)F,17900 nM,> 100 µM
CCOc1nccc2c1nc(-c1nonc1N)n2CC,> 25000 nM,> 25 µM
COc1cc(C2CC(=O)Nc3c2ccc2ccccc32)cc(Br)c1OC (configuration not stated),285 nM,0.969 µM
Cc1cc(N(CCCNc2ccnc3cc(Cl)ccc23)Cc2ccc3c(c2)OCO3)nc(N2CCCCC2)n1,1950 nM,4.67 µM
CC(C)C[C@H](NC(=O)[C@@H](NC(=O)c1cccc(-c2ccccc2)n1)[C@@H](C)O)B(O)O,2.44 nM,0.00685 µM
Cn1cnc2c(F)c(Nc3ccc(Br)cc3F)c(C(=O)NOCCO)cc21,26900 nM,> 83.4 µM
Cc1cc(C)c(S(=O)(=O)N(CCc2cccc(Br)c2)Cc2ccc(-c3cccc(S(C)(=O)=O)c3)cc2)c(C)c1,> 100000 nM,> 100 µM
CCN(CC)CCn1c2ccc(OC)cc2c2sc3cc(OC)ccc3c(=O)c21,1560 nM,3.21 µM
COc1cccc(C2SC(C)C(=O)N2CCc2cccs2)c1 (configuration not stated),2250 nM,7.32 µM
Cc1ncc(C(=O)Nc2ccc(CN3CCN(C)CC3)c(C(F)(F)F)c2)cc1C#Cc1c(N)ncc2ccccc12,577 nM,1.15 µM
COc1ccc(-c2cc(-c3cccc(NS(C)(=O)=O)c3)nc(N)c2C#N)cc1,1350 nM,6.64 µM

SMILES,GI50,TGI
CC(=O)Nc1ccc(NC(=O)Nc2cccc(-c3nc(-c4ccc(NC(=O)c5cccnc5)cc4Cl)no3)c2)cc1C(F)(F)F,234 nM,0.758 µM
Clc1ccc(CNc2nccc(-c3cnn4ncccc34)n2)cc1,5620 nM,12.7 µM
COc1c(Cl)ccc2c(-c3nc4cc(Cl)c(F)cc4s3)cc(=O)oc12,4890 nM,34.4 µM
O=C(N/N=C/c1ccc(Cl)cc1Cl)c1ccc2nc(-c3ccc(Cl)cc3)[nH]c2c1,1640 nM,3.23 µM
COC(=O)[C@]12CC[C@@H](C)[C@H](C)[C@@H]1C1=CC[C@@H]3[C@@]4(C)C(C=O)=C[C@@](C)(COS(C)(=O)=O)C4[C@H](O)C[C@@]3(C)[C@]1(C)CC2 (some centres not stated),2080 nM,4.1 µM
COc1cccc(CCC(=O)c2cc3c(N)c(C(=O)Nc4cccc(Cl)c4C)sc3nc2C)c1,288 nM,2.82 µM
O=C(COc1cccc(/C=C2\Oc3ccc4ccccc4c3C2=O)c1)c1ccc(Cl)cc1,9620 nM,43.3 µM
CCNNC(=O)[C@@H]1[C@H](c2cc(OC)c(OC)c(OC)c2)c2cc3c(cc2[C@H](O)[C@H]1CO)OCO3,281 nM,–
CN1C[C@@H]2Cn3c(c(C4=C(c5cn(C)c6ccccc56)C(=O)NC4=O)c4ccccc43)C[C@H]2C1,4040 nM and 3060 nM,9.12 µM and 6.64 µM
CSc1ccc(SC2c3ccc(C)cc3Oc3nc(N)c(C#N)c(N)c32)cc1 (configuration not stated),1740 nM,3.81 µM
N#C/C(=C\c1c(-c2ccccc2)[nH]c2ccccc12)C(=O)c1ccccc1,5560 nM,> 100 µM
Nc1nccc2c1ncn2C1OC(CO)C(O)C1O (configuration not stated),> 100000 nM,> 100 µM
CCCCCCCCCCCCCCCCCCOc1ccccc1CC(=O)NCC[N+](C)(C)C,2470 nM,6.28 µM
NC(=O)c1ccccc1NC(=O)c1ccccc1Cl,> 100000 nM,> 100 µM
COC(=O)[C@H](C)NC(=O)[C@@H](OC)[C@@H]1Cc2cc3cc(OC4CC(OC5CC(O)C(O)C(C)O5)C(O)C(C)O4)c(C)c(O)c3c(O)c2C(=O)[C@H]1OC1CC(OC2CC(OC3CC(C)(O)C(O)C(C)O3)C(O)C(C)O2)C(O)C(C)O1 (some centres not stated),112 nM,1.07 µM
Nc1ccc(C(OC(=O)c2cc3ccccc3c(Cc3c(O)c(C(=O)OC(c4ccc(N)cc4)(c4ccc(N)cc4)c4ccc(N)cc4)cc4ccccc34)c2O)(c2ccc(N)cc2)c2ccc(N)cc2)cc1,252 nM,2.13 µM
COc1cc(F)c(/C=C/c2cc(/C=C/c3cc(OC)c(OC)cc3F)n(-c3cc(F)cc(F)c3)n2)cc1OC,2390 nM,5.72 µM
